Test results reported in the OPERA property sets (Mansouri et al. 2018).
In brackets after ≈: the same amount, converted by molar mass.

| Structure (SMILES) | solubility (20 °C) [mM] | solubility (25 °C) [mM] |
| --- | --- | --- |
| CCCOC(C)=O | 185 (≈ 18900 µg/mL) |  |
| CCOC(=O)CCCCC(=O)OCC | 20.9 (≈ 4230 µg/mL) |  |
| O=C(O)/C=C/c1ccc2c(c1)OCO2 |  | 0.141 (≈ 27 µg/mL) |
| F[P-](F)(F)(F)(F)F.N#[N+]c1ccccc1 | 36 |  |
| O=C(O)c1ccccc1Br |  | 9.23 (≈ 1860 µg/mL) |
| COC(C)=O | 3280 (≈ 243000 µg/mL) |  |
| O=C1c2ccccc2C(=O)c2cc(O)ccc21 |  | 0.00491 (≈ 1.1 µg/mL) |
| CC(=O)OC(C)C | 303 (≈ 30900 µg/mL) |  |
| Cc1cccc(S(N)(=O)=O)c1 |  | 45.6 (≈ 7810 µg/mL) |
| O=C1c2ccc(O)cc2C(=O)c2ccc(O)cc21 |  | 0.00129 (≈ 0.31 µg/mL) |
| COc1ccc(C=CC(=O)O)cc1 |  | 5.15 (≈ 918 µg/mL) |
| O=C(O)c1ccc(I)cc1 |  | 0.109 (≈ 27 µg/mL) |
| CC(=O)Nc1ccc([N+](=O)[O-])cc1 |  | 12.2 (≈ 2200 µg/mL) |
| CC(C)c1ccc(C(=O)O)cc1 |  | 0.92 (≈ 151 µg/mL) |
| CC(Cl)C(Cl)(Cl)C(O)O (stereo not drawn) | 136 (≈ 26300 µg/mL) |  |
| O=C(O)C=Cc1cccc(Br)c1 |  | 2.31 (≈ 525 µg/mL) |
| CCCCCCCCC(C(=O)O)C(=O)O |  | 1.2 (≈ 260 µg/mL) |
| C[C@H]1C[C@@H](OC(=O)c2ccccc2)CC(C)(C)N1 | 12 (≈ 2960 µg/mL) |  |
